The results in this text go back to patent US20160024071A1, “INHIBITORS OF LRRK2 KINASE ACTIVITY” (ELAN PHARMACEUTICALS, LLC., priority 2013, published 2016).

The target in the test is T1, recombinant GST-LRRK2 (wild-type) (Homo sapiens, UniProt Q5S007).
T1 construct: GST (N); purchased Invitrogen
Kind of test: LRRK2 TR-FRET peptide assay (wild-type). It is filed as biochemical. The note with it: 100 μM ATP, 100 nM biotin-LRRKtide, 10 nM kinase, 60 min room temperature. Here is the method:
Compounds as described herein (compounds of Formula I, e.g., compounds of the above Examples) are tested for their in vitro kinase activities using various LRRK2 (including LRRK2 G2019S mutant) assays. For example, assays were performed in a total volume of 20 μL using the same kinase reaction buffer (50 mM HEPES pH 7.5, 10 mM MgCl2, 1 mM EGTA, 2 mM DTT and 0.01% Tween-20) for wild-type or G2019S mutant LRRK2. Serially diluted compounds (1% DMSO as co-solvent) were pre-incubated with recombinant GST-LRRK2 (wild-type, or G2019S mutant, Invitrogen) for 15 minutes at room temperature in 384-well Corning black plates. Mixtures of ATP and biotin-LRRKtide substrate (biotin-RLGRDKYKTLRQIRQ) were added to the wells at a final concentration of 100 μM ATP and 100 nM substrate, with final kinase concentration of 10 nM. The kinase reactions were carried out at room temperature for 60 minutes, then the reaction was stopped with the addition of 10 μL/well of stop/detection buffer (25 mM HEPES pH 7.5, 66 mM EDTA, 0.8 M KF and 0.1% BSA) that contains streptavidin-XL665 (12.5 nM) and europium-conjugated phospho-specific antibody (2 nM). The plates were read 1 hour later and the time-resolved fluorescence (665 nm to 615 nm ratio) measured using an Envision reader. The inhibition of each well was calculated using the control and background readings for that plate. IC50 values were determined from dose-response curves using eight concentrations from the serial dilution of the test compounds.
A general note: TR-FRET usually uses a lanthanide donor and a delayed reading to cut background.

T1 sequence (Q5S007 whole entry): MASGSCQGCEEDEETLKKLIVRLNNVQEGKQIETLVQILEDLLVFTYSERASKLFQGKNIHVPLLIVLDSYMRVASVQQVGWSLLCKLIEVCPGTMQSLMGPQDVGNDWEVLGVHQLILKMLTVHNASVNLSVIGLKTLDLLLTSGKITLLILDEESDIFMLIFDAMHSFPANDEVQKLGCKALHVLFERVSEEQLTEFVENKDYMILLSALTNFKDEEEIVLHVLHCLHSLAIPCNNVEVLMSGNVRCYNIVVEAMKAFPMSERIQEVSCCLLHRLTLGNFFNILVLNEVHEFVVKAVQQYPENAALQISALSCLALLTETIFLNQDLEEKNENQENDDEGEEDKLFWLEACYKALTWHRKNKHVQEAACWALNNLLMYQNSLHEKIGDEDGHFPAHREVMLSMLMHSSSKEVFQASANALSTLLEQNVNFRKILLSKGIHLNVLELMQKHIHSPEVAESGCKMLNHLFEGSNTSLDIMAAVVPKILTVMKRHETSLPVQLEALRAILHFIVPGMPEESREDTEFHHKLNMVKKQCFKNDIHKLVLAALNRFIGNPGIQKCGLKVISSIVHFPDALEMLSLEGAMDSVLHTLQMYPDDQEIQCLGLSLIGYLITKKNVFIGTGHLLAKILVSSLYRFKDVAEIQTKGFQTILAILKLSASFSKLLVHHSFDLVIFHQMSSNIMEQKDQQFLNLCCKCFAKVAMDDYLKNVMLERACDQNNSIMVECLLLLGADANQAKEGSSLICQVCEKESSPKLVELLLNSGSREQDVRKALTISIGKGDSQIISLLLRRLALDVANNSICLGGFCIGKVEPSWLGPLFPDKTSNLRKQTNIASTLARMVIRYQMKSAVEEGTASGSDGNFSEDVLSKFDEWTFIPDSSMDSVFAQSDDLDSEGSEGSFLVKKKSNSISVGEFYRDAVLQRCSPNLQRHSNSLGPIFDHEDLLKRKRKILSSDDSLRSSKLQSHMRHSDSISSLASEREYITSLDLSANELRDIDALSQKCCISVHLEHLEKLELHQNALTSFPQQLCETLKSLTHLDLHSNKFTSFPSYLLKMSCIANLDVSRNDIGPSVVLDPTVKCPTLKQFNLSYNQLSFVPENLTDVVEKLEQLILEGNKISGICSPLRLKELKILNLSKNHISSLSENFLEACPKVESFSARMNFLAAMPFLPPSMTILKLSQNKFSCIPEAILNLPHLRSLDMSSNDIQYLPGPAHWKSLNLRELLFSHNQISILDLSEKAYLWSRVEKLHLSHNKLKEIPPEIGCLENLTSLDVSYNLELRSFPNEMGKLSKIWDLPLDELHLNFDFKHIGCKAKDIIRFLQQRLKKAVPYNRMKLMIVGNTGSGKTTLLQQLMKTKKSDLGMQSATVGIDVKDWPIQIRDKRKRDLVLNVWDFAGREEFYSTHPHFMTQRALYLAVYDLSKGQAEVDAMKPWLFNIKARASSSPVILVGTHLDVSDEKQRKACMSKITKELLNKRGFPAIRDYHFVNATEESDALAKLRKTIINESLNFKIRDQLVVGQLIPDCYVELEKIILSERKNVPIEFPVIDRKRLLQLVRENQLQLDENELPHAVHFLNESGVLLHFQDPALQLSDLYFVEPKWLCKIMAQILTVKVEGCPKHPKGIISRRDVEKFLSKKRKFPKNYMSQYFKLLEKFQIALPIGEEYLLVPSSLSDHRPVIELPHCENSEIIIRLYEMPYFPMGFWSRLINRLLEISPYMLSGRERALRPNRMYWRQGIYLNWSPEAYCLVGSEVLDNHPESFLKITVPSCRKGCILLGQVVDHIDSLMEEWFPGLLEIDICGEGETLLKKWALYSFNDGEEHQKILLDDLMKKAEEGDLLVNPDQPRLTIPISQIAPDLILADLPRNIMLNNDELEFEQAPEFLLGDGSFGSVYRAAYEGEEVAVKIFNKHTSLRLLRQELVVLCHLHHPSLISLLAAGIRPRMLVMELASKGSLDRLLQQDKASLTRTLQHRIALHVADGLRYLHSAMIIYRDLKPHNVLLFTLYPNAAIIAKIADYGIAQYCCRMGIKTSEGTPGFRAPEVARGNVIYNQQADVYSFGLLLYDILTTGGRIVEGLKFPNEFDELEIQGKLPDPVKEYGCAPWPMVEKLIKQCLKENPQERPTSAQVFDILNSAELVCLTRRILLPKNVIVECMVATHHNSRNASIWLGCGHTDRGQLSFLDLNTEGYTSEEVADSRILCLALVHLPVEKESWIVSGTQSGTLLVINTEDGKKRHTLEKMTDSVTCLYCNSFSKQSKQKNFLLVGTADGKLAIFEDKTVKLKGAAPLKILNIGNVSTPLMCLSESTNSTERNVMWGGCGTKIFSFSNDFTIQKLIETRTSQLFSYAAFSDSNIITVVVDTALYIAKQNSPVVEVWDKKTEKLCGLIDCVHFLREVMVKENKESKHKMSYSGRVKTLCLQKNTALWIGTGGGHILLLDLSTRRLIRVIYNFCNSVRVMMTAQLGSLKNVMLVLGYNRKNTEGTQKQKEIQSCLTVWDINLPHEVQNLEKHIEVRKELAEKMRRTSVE

As for `O=C(NN=C1SCC(=O)N1c1ccccc1F)c1ccc(Cl)s1` [Compound 1-10, 5-chloro-N′-(3-(2-fluorophenyl)-4-oxothiazolidin-2-ylidene)thiophene-2-carbohydrazide], the IC50 (as a rule, the concentration that gives 50% inhibition) was determined as 0.5 nM. Regarding `CC1(C)SC(=NNC(=O)c2ccc(Cl)s2)N(c2ccccc2)C1=O` [Compound 1-14, 5-chloro-N′-(5,5-dimethyl-4-oxo-3-phenylthiazolidin-2-ylidene)thiophene-2-carbohydrazide], the IC50 was 330 nM. For `O=C(NN=C1SCC(=O)N1c1ccc(F)cc1)c1ccc(Cl)s1` [Compound 1-11, 5-chloro-N′-(3-(4-fluorophenyl)-4-oxothiazolidin-2-ylidene)thiophene-2-carbohydrazide], the IC50 is 0.9 nM. With `O=C(NN=C1SCC(=O)N1c1cccc(C(F)(F)F)c1)c1ccc(Cl)s1` [Compound 1-16, 5-chloro-N′-(4-oxo-3-(3-(trifluoromethyl)phenyl)thiazolidin-2-ylidene)thiophene-2-carbohydrazide] the figure was 111 nM; with `CC1SC(=NNC(=O)c2ccc(Cl)s2)N(c2ccccc2)C1=O` (stereo not drawn) [Compound 1-7, 5-chloro-N′-(5-methyl-4-oxo-3-phenylthiazolidin-2-ylidene)thiophene-2-carbohydrazide], 11 nM. Consider `O=C(NN=C1SCC(=O)N1c1ccccc1)c1ccc(Cl)s1` [Compound 1-6, 5-chloro-N′-(4-oxo-3-phenylthiazolidin-2-ylidene)thiophene-2-carbohydrazide], for which the IC50 was found to be 0.9 nM.

As for `COc1ccccc1N1C(=O)CSC1=NNC(=O)c1ccc(Cl)s1` [Compound 1-9, 5-chloro-N′-(3-(2-methoxyphenyl)-4-oxothiazolidin-2-ylidene)thiophene-2-carbohydrazide], the IC50 is 1170 nM. The figure for `O=C(NN=C1SCCN1c1ccccc1)c1ccc(Cl)s1` [Compound 2-19, 5-chloro-N′-(3-phenylthiazolidin-2-ylidene)thiophene-2-carbohydrazide] is 51 nM.

Consider `O=C(NN=C1SCC(=O)N1Cc1ccccc1)c1ccc(Cl)s1` [Compound 1-15, N′-(3-benzyl-4-oxothiazolidin-2-ylidene)-5-chlorothiophene-2-carbohydrazide], for which the IC50 was 13 nM. Turning to `CC(C)C1SC(=NNC(=O)c2ccc(Cl)s2)N(c2ccccc2)C1=O` (stereo not drawn) [Compound 1-13, 5-chloro-N′-(5-isopropyl-4-oxo-3-phenylthiazolidin-2-ylidene)thiophene-2-carbohydrazide], the half-maximal inhibitory concentration (IC50) was 210 nM. The figure for `O=C(NN=C1SCC(=O)N1c1ccc(F)cc1F)c1ccc(Cl)s1` [Compound 1-12, 5-chloro-N′-(3-(2,4-difluorophenyl)-4-oxothiazolidin-2-ylidene)thiophene-2-carbohydrazide] is 0.5 nM; for `O=C(NN=C1SCC(=O)N1c1cccc(F)c1)c1ccc(Cl)s1` [Compound 1-8, 5-chloro-N′-(3-(3-fluorophenyl)-4-oxothiazolidin-2-ylidene)thiophene-2-carbohydrazide] it is 1.1 nM.
